In data set [1] the test system is SARS-CoV-2 pseudovirus. Description: microbe, parasite or virus in culture. The data set is classed as cell-based.
Data set [2] can be described thus: Single-dose oral acute toxicity test in rats. The format is in vivo, rats (Sprague-Dawley, S D strain). As to the method: This example was a single-dose oral acute toxicity safety test of the Formula I compound—Ovatodiolide in rats, and a reference for food safety assessment was provided. […] In this experiment, single-dose oral acute toxicity tests of the Formula I compound—ovatodiolide were conducted in rats (Sprague-Dawley, S D strain). The Formula I compound—Ovatodiolide was in the form of yellowish crystals, the test purity was 99.95%, 10% of DMSO was used to prepare a solution concentration of 0.1 g/mL during the experiment, the feeding volume of each rat was 10 mL/kg body weight, the rats were fed orally based on their body weights on that day, the final dose was 1 g/kg-body weight in total, and the rats were continuously observed for 14 days after administration. […] No effects on the serum liver and kidney enzyme values of the male and female rats in the treatment group, including aspartate aminotransferase (AST), alanine aminotransferase (ALT), blood urea nitrogen (BUN), and creatinine, etc.

Data set [3] in a line: 28-day feeding (repeated dose oral) toxicity test in rats. The format is in vivo, rats (Sprague-Dawley, S D strain). As to the method:
This experiment investigated whether the Formula I compound—Ovatodiolide might cause potential side effect toxicity to human bodies for clinical safety assessment, and 28-day repeated-dose oral toxicity tests of the Formula I compound—Ovatodiolide were conducted to observe clinical side effects. The Formula I compound—Ovatodiolide was a yellowish crystal, the test purity was regarded as 99.95%, and the samples were prepared with 5% of DMSO during the tests. Rats (Sprague-Dawley, S D strain) were divided into 4 groups, the control group (5% of DMSO), the low-dose group (10 mg/kg-body weight), the medium-dose group (25 mg/kg body weight) and the high-dose group (50 mg/kg-body weight), 20 rats in each group, half males and half females, each rat was fed with a volume of 10 mL/kg-body weight, and the rats were orally fed according to their body weight on the day for 28 consecutive days. […] In view of the above test results, after the rats of the low-dose group (10 mg/kg-body weight), the medium-dose group (25 mg/kg-body weight) and the high-dose group (50 mg/kg-body weight) were orally fed respectively with the Formula I compound—Ovatodiolide for 28 days continuously, no toxic reactions was caused to various organs of the male and female rats, and the “No observed adverse effect level” (NOAEL) for the 28-day feeding toxicity test in rats was 50 mg/kg-body weight, the equivalent human dose was about 8 mg/kg-body weight.

Data set [4] concerns CHO-K1 cells. Description: In vitro mammalian chromosome aberration test, with cytotoxicity test. The format is cell-based. The conditions noted are these: for survival rate of the CHO-K1 cells: 24 hours. As to the method:
In this experiment, the chromosomal aberration test with mammalian cell in culture of the Formula I compound—Ovatodiolide was carried out. The Formula I compound—Ovatodiolide was yellowish crystals, and prepared with Dimethyl sulfoxide (DMSO) during the test. The cytotoxicity test was divided into two parts, in one part, CHO-K1 cells was reacted directly with the Formula I compound—Ovatodiolide, and in the other part, rat liver activating enzyme extract (S9) was used to simulate human metabolism, CHO-K1 cells, the rat liver activating enzyme extract (S9) and the Formula I compound—Ovatodiolide were mixed and then reacted.

For data set [5] the following is noted: mice; for number of micronuclei in the reticulocytes vs negative control / number of reticulocytes in peripheral blood vs negative control: 48 and 72 hours after administration. As to the method: In this experiment, the Formula I compound—Ovatodiolide on the peripheral blood micronucleus was tested in mice (ICR strain). This experiment mainly tested the effect of the Formula I compound—Ovatodiolide on the ratio of the occurrence of micronucleus in the peripheral blood of the mice (in vivo), so as to evaluate the level of damages caused by directly or indirectly triggered gene mutations of erythrocyte chromosomes or mitosis. ICR mice were used as the experimental subjects of this experiment, and the experiment was divided into 5 groups, the negative control group, the positive control group (Cyclophosphamide, 60 mg/kg bw ip), the Formula I compound—Ovatodiolide low dose (0.25 g/kg bw) group, the medium Dosage (0.5 g/kg bw) group and the high dose (1 g/kg bw) group, 5 mice (male) in each group, and Ovatodiolide was fed once by a gastric tube, 48 and 72 hours after the tested substances were administered, the reticulocytes and the occurrence (%) of micronucleus in the reticulocytes in the peripheral blood of the mice were evaluated.

The subject of data set [6] is influenza virus. In words: Test experiments on influenza virus in contrast to Tamiflu.
Data set [7] concerns HIV virus. To be noted: Fitoterapia, 2000, 71(5): 574-576; cited from earlier work.
Setting [8] is: male and female rats, 1 g/kg-body weight oral.

Each structure is given as a SMILES string.

As a reminder, the IC50 is the concentration that inhibits the measured activity by half. Turning to `C=C1C(=O)O[C@@H]2/C=C(\C)C[C@H]3C=C(CC/C=C(\C)CC[C@@H]12)C(=O)O3` [Ovatodiolide], in data set [1], the “inhibitory effect on coronavirus infections” value is reported as “significant inhibitory effect on coronavirus infections at the micromolar level”. Also, the IC50 in data set [1] (Severe acute respiratory syndrome-related coronavirus, Huh-7, 64 h, read-out: IC50 for inhibiting SARS-CoV-2 infections) was determined as 3.73 µM. The “equivalent human dose of the single acute dose” value in data set [2] (from 1 g/Kg-body weight in rats) is on record as “about 50 mg/kg-body weight”. Further, in data set [2] (setting [8]), the “blood values (WBC, RBC, Hct, MCV, MCH, MCHC, platelets, leukocyte classification)” value was “no significant abnormal changes”; the “serum liver and kidney enzyme values (AST, ALT, BUN, creatinine)” value is “No effects”; the “weekly body weight and body weight gain vs control group” value is listed as “no significant difference”. The “histopathological examination of important organs” value in data set [2] (rats, 1 g/kg-body weight oral) was “no histopathological changes in relation to the test substances”. Besides, the “acute poisoning or death” value in data set [2] (rats, single oral dose 1 g/Kg-body weight, observed 14 days) is given as “no acute poisoning or death”. Besides, the “equivalent human dose of the NOAEL” value in data set [3] (from rat NOAEL, 28-day feeding) is “about 8 mg/kg-body weight”. Moreover, the “histopathological examination of organs” value in data set [3] (high-dose group (50 mg/kg-body weight), 28 days) is “no pathological changes related to organ toxicity reaction”. Besides, the “body weight changes, feed consumptions, urine, blood values, serum enzyme values and organ weights vs control” value in data set [3] (male and female rats, each treatment group, 28 days) is recorded as “within the normal range”. For the same compound, the “symptoms of being poisoned or death” value in data set [3] (rats, oral 10, 25 and 50 mg/kg-body weight, 28 days) is given as “no symptoms of being poisoned or death”. Moreover, the “No observed adverse effect level (NOAEL)” value in data set [3] (rats, oral, 28 consecutive days) came to 50 mg/kg-body weight. Further, the “survival rate of the CHO-K1 cells” value in data set [4] (17.5 μM, without S9 (−S9)) is recorded as “about 65.6%”. Further, the “survival rate of the CHO-K1 cells” value in data set [4] (75 μM, with S9 (+S9)) is reported as “about 60.3%”. Also, in data set [4] (12.5, 15 and 17.5 μM (−S9) and 55, 65 and 75 μM (+S9)), the “frequency of chromosomal aberration in the CHO-K1 cells vs negative control” value is recorded as “did not increase significantly”. In addition, in data set [5], the “number of micronuclei in the reticulocytes vs negative control” value was “no significant difference” and the “number of reticulocytes in peripheral blood vs negative control” value was “no significant difference”. Besides, the micronucleus test result in data set [5] (each dose group) is “negative”. The “toxicity symptoms and body weight” value in data set [5] (single gastric tube dose 0.25, 0.5, 1 g/kg bw, 48 and 72 hours) is “no toxicity symptoms and no differences in the body weight”. Further, the “effect on inhibiting influenza virus” value in data set [6] is reported as “excellent effect on inhibiting influenza virus”. Further, in data set [7], the “inhibition of HIV virus” value is “can inhibit HIV virus”.

As for `O=P1(N(CCCl)CCCl)NCCCO1` (stereo not drawn) [Cyclophosphamide, reference compound], in data set [5], the “number of micronuclei in the reticulocytes vs negative control” value was “increased significantly” and the “number of reticulocytes in peripheral blood vs negative control” value is “significantly decreased”.

(Values after patent US12403125B2, “Use of Ovatodiolide against SARS-CoV-2” (Peking University Shenzhen Graduate School, priority 2020, dated 2025).)
